{"source": "paper PMC11607671", "about": "“Antiviral activity of cathelicidins against porcine epidemic diarrhea virus (PEDV): Mechanisms, and efficacy” (Virus Research, 2024)", "format_in_all_cases": "cell-based, Porcine epidemic diarrhea virus", "key": {"PEDV [1]": {"system": "PEDV", "experiment": "Co-incubation antiviral assay, PEDV MOI=1, Vero cells", "conditions": "Fig. 4B", "protocol": "(§1) In order to determine the effect of AMPs on the infectivity of PEDV, Vero cells (5 × 10^5 per well) were seeded in 12-well plates and cultured overnight at 37 °C, 5% CO2. In a co-incubation of virus and AMPs experiments (Fig. 2A), the mixture of AMPs (0–10 µM) and PEDV-GFP (MOI= 0.3) in a 1 mL volume of DMEM (P/S + 10% FCS) was added to the cells and incubated at 37 °C. After 2 h, the supernatant was replaced with fresh DMEM (P/S + 10% FCS) and incubated for 24 h. Subsequently, the cells were washed 2 times with flow cytometry buffer (500 mL PBS+ 10 mL FCS+ 250 µL of 10% NaN3) and were imaged with an EVOS M5000 Imaging System for semi-quantitative determination of infectivity. Eventually, cells were carefully detached by 2.5% trypsin, stained with ViaKrome 808 fixable viability dye (1:1000), and incubated for 30 min at 4 °C. Following washing, the cells were fixed using 50 µL of 4% PFA for 10 min, and a minimum of 1 × 10^5 cells were acquired using the CytoFLEX LX Flow Cytometer (FC)(Beckman Coulter, USA). Data was analyzed using FlowJo software v.10.6 (Flowjo LCC, Ashland, OR, USA).\nFig. 4 The inhibitory effect of AMPs on PEDV at MOI=1. A) Fluorescence microscopy image was captured at 20 × magnification to visualize the GFP fluorescence signal in Vero cells following co-incubation of AMPs and PEDV at MOI=1. B) The percentage of GFP-positive cells was determined by FC after 3 h co-incubation of PEDV and AMPs. C) The fluorescence intensity of GFP across three different concentrations of LL-37 was illustrated through the FC histogram. […] The reported values in 4A represent the mean ± SD of three independent experiments performed in duplicate **** p < 0.0001."}, "PEDV-GFP [2]": {"system": "PEDV-GFP", "experiment": "Co-incubation antiviral assay, PEDV-GFP MOI=0.3, Vero cells (fluorescence microscopy and flow cytometry)", "protocol": "as §1\nFig. 2 Effect of AMPs on the infectivity of PEDV (MOI=0.3). A) Experimental set-up of the ‘co-incubation assay’; Vero cells were subjected to 2 h exposure to a combination of AMPs and PEDV-GFP. Afterward, the supernatant was replaced, and the cells were incubated for an additional 24 h B) Fluorescent microscopy (20 × magnification) was performed to visualize the fluorescence signal of GFP in the presence of 1, 5, and 10 µM AMPs. The cell-only sample consists exclusively of cells while the no-peptide sample contains only PEDV-GFP, with no peptides present.\nFig. 3 Antiviral activity of AMPs as determined by flow cytometry (FC). A) The percentage of GFP-positive cells following a 2 h incubation with a combination of PEDV and AMPs. […] The values reported here depict the average ± SD derived from three independent experiments performed in duplicate. * p < 0.05; ** p < 0.01."}, "PEDV [3]": {"system": "PEDV", "experiment": "Peptide-virus interaction assay with Capto Core 700 beads", "conditions": "Fig. 8", "protocol": "In order to determine if CATH-B1 and LL-37 physically interact with PEDV, Capto Core 700 beads (GE Healthcare Life Sciences, Chicago, IL, USA) were used to selectively eliminate unbound AMPs. PEDV were pre-incubated with or without CATH-B1/LL-37 in Opti-MEM medium, and Capto Core 700 beads were added, followed by a 1 h incubation at 4 °C while slowly rotating. After centrifugation, supernatants were collected and applied to the cells. To make sure the AMP was removed effectively, we tested samples with peptides but no virus using the same process. The collected supernatants were used to inoculate cells, and the number of infected cells was determined using the described method.\nFig. 8 Interactions between CATH-B1 and LL-37 with PEDV. CATH-B1/LL-37 were pre-incubated with the virus, and subsequently, the peptide and virus were separated using Capto Core beads. The supernatant containing the separated virus was then employed to infect Vero cells. […] The data is presented as the mean ± SEM of three independent experiments in duplicate, each with triplicate samples. **** p < 0.0001."}, "PEDV-GFP [4]": {"system": "PEDV-GFP", "experiment": "Post-incubation (post-treatment) antiviral assay", "conditions": "Vero cells exposed to PEDV-GFP 2 h, washed, then AMPs for 3 h; FC; Fig. 7B, C", "protocol": "In post-incubation assays (Fig. 7A), cells were initially exposed to the virus for 2 h, washed 2times with PBS and subsequently treated with AMPs for 3 h Both for pre- and post-infection assays, after the respective incubation periods, the cells were assessed using fluorescence microscopy and quantified using FC as described above.\nFig. 7 Effects of AMPs in post-incubation assay. A) Design and setup of post-incubation assay. B) The percentage of GFP-positive cells was quantified using FC during post-incubation. C) The FC histogram illustrates the fluorescence intensity of GFP after treatment with CATH-B1 and LL-37. […] The reported values represent the mean ± SD derived from three independent experiments performed in triplicate."}}, "data": [{"sequence": "LLGDFFRKSKEKIGKEFKRIVQRIKDFLRNLVPRTES [LL-37, human cathelicidin antimicrobial peptide, 37 residues]", "values": [{"measurement": "% infected cells (FC), co-incubation at MOI=1", "setting": "PEDV [1]; 10 µM peptide, PEDV MOI=1, Vero cells, no-peptide control almost 100%", "value": 30, "unit": "%"}, {"measurement": "antiviral effect at MOI=1, in words", "setting": "PEDV [1]; PEDV MOI=1, co-incubation, Vero cells, FC", "value": "remained strong"}, {"measurement": "percentage of GFP-positive cells (FC), co-incubation", "setting": "PEDV-GFP [2]; 10 µM peptide, PEDV-GFP MOI=0.3, 2 h co-incubation then 24 h, no-peptide control approximately 35%, three independent experiments in duplicate, Fig. 3A", "value": "1–2%"}, {"measurement": "infected cells by fluorescent microscopy, co-incubation", "setting": "PEDV-GFP [2]; PEDV-GFP MOI=0.3, 5 and 10 µM peptide, 2 h co-incubation then 24 h, compared to control without peptide, Fig. 2B", "value": "reduced numbers of infected cells"}, {"measurement": "virus infectivity, peptide pre-incubated with beads before PEDV introduction", "setting": "PEDV [3]; Capto Core 700 beads, Vero cells", "value": "minimal effects on virus infectivity"}, {"measurement": "virus infectivity, peptide incubated with PEDV without beads", "setting": "PEDV [3]; no Capto Core 700 beads, Vero cells", "value": "a decrease in virus infectivity"}, {"measurement": "antiviral activity when peptide is combined with virus and beads", "setting": "PEDV [3]; peptide + PEDV, then Capto Core 700 beads 1 h at 4 °C, supernatant applied to Vero cells", "value": "lost its inhibitory effect"}, {"measurement": "antiviral activity in post-incubation assay, in words", "setting": "PEDV-GFP [4]", "value": "very moderate effect"}]}]}
